# Measurements reported in patent US9592211B2, “Compositions for improvement of brain function” (GRESPO AB, priority 2012, dated 2017).
# Entries after “also recorded” stand apart in the source; their conditions may differ.
# Key:
# [1] = test system: nestin-positive neurons in hippocampal CA1 area; assay: Induction of hippocampal neurogenesis (nestin immunohistochemistry), Example 1; type: in vivo, Mongolian gerbils; settings: old gerbils, 6 month feeding in chow, compared to age matched controls (FIG. 1)
# Experimental: After the course of treatment as specified under Materials and Methods, the animals were sacrificed and the brains were analysed histologically to quantitate hippocampal neurogenesis.
# Nestin is a marker for immature neurons. Nestin positive cells were found in the hippocampal layer of the pyramidal neurons. […] In some cells long processes that seem to be dendrites extended into deeper layers of the hippocampus, and these processes were nestin positive as well. In all of the CA fields of the hippocampus (CA1-CA3) these cells were structurally similar to pyramidal cells. The structural similarities between nestin positive cells and neurons allow regarding this type of cells as newly generated neurons.
# In Example 1. the animals were fed Labofeed B standard chow (from Labofeed company; Andrzej Morawski Feed Production Plant, Kcynia near. Bydgoszcz, Poland) supplemented with test compounds as specified in table 1.
# The lipase, protease and amylase were obtained as capsules containing 30,000 USP units/capsule of lipase, 20,000 USP units/capsule of protease, and 3,000 USP units/capsule of amylase) prepared as shown in Table 2. […]
# Samplings for immunohistochemistry (one hemisphere of each animal) were postfixed overnight in the same fixative at +4° C. […] Then slices were washed out, placed on histological slides and mounted with Fluorescence Mounting Media (Dako, Denmark). […]
# [2] = test system: Mongolian gerbils; assay: T-maze spontaneous alternation, cognitive function/memory, Example 2; type: in vivo; settings: old gerbils, feeding in chow, tested once (FIG. 2)
# Text: During the course of the treatment, the animals were subjected to T-maze test measuring cognitive function and/or memory as specified under Materials and Methods.
# For long-lasting feeding (during 6 month) 75 old male Mongolian gerbils, randomly selected, were used. Those selected were approximately 1.5 years of age at start of the experiment with the mean body weight of 88.0±6 g and 2 years of age at experiment finish.
# Subjects were first placed in the start arm of the T Maze. Upon leaving the start arm, subjects chose between entering either the left or the right goal arm. […] The percentage of alternation (number of turns in each goal arm) and total trial duration were recorded.
# [3] = test system: synaptic terminals in hippocampal CA1 zone; assay: Synaptic morphology alterations (electron microscopy), Example 4; type: in vivo, Mongolian gerbils
# Text: In the middle portion of the CA1 stratum radiatum analyzed in the study, the great majority of synaptic inputs are excitatory and they preferentially terminate on the […], Taking into consideration these aspects, we could focus our analyses on the pool of excitatory CA1 spine synapses.
# After perfusion the brains were isolated and separated on two hemispheres.
# The hippocampus from another hemisphere of each animal was isolated and cut in 400-μm-thick transverse slices by a chopper (McIlwain tissue chopper, Great Britain). […] Tissue slices were then dehydrated in an ascending series of ethanol followed by dry acetone and embedded in EPON resin according to official protocol. The sections were produced by ultramicrotome LKB-8800. Toluidine blue-stained semi-thin (1 μm) sections of hippocampus were used to localize hippocampal CA1 area. For electron microscopy, ultra-thin sections (70 nm) from the middle portion of CA1 stratum pyramidale and stratum radiatum were stained with uranyl acetate and lead citrate.
# The images were taken with JEM-100CX (Jeol, Japan) transmission electron microscope at magnification of ×10 000.
# Perforated synapse was defined as a synapse with discontinuous PSD. The synapses with more than one spine contacting the same presynaptic terminal were classified as multiple spine boutons (MSB).
# For the analysis of SV's distribution, x- and y-coordinates of SV profile centers and points tracing the active zone of a synapse were marked with UTHSCSA ImageTool software (version 3, University of Texas, San Antonio, Tex.; ftp://maxrad6.uthscsa.edu) on digitized micrographs, using the point tool.
# AZD and NND quantities were pooled together per group. […]
# Estimations of synapse density were carried out on single photos by counting all asymmetric spine synapses (determined by the presence of a spine head with prominent PSD and docked synaptic vesicles (SV) in the active zone of a presynaptic terminal) on the micrograph surface limited by the counting frame (36 mkm^2 test area) followed by calculation of the number of synapses per surface unit area.
smiles,measurement,setting,value
"O=C(O)CCC(=O)C(=O)O [AKG, alpha-ketoglutaric acid]",hippocampal neurogenesis (number of nestin-positive neurons per 1 mm of pyramidal layer length in hippocampal CA1 area),[1],increased hippocampal neurogenesis; also recorded: increase neurogenesis
same,cognition (percentage of spontaneous alterations in T-maze test),[2],improved cognition
same,number of SVs (synaptic vesicles) per presynaptic terminal,"[3]; hippocampal CA1, compared to control old animals (FIG. 6A)",increased
same,"number of synaptic terminals (synaptic contacts) per unit area (100 μm^2), increased to","[3]; hippocampal CA1, old gerbils after long time treatment, old control three times lower than young (FIG. 4)",55%
same,distance from a synaptic vesicle to the active zone (AZD),"[3]; hippocampal synapses, old gerbils (FIG. 7)",increase of a distance from a vesicle to the active zone
